In PMC9278491, “Filarial nematode phenotypic screening cascade to identify compounds with anti-parasitic activity for drug discovery optimization” (International Journal for Parasitology: Drugs and Drug …, 2022):
Values joined by “and” are separate entries in the source; they are usually repeats but may differ in a detail not shown here. Identical values can stand only once. Like-named read-outs stand apart in the source and are kept apart here.

Columns and labels:
[1] = test system: O. lienalis microfilariae; test: O. lienalis microfilariae 5-day motility assay; set-up: species or system Onchocerca lienalis; conditions: 5 days in vitro culture, top concentration 12.5 μM; read-out: O. lienalis EC50 (motility inhibition, microfilariae)
Description: A single large batch of O. lienalis microfilariae was obtained post mortem from the peri-umbilical skin area of freshly slaughtered, naturally infected cattle in the UK following the procedure described by ([Tagboto and Townson, 1991]) and the references therein. The extracted microfilariae were cryopreserved using a 2-step incubation technique with ethanediol as a cryoprotectant ([Ham et al., 1981]), stored in liquid nitrogen and thawed when required for immediate use.
Using a dissecting microscope and micropipette, microfilariae were then transferred in groups of 5 into each well of a 96-well plate (Fisher Scientific, UK). […]
(§1) Only normally active worms were used for the test and all assays were conducted at 37 °C and 5% CO2. […] The activity levels of O. gutturosa adult worms were assessed by the measurement of mean motility scores on a scale of 0 (immotile) to 10 (maximum) every 24 h, terminating at 120 h, using an Olympus inverted microscope. For O. lienalis microfilariae, the motility of the microfilariae was classified using an Olympus inverted microscope as normal (continuous rapid sinuous movement, scored as 3), marginally impaired (slower than normal movement, scored as 2), severely impaired (scored as 1), or immotile (scored as 0) after 120 h of drug exposure. […]
The EC50 values were calculated using a sigmoidal interpolation in Graph Pad Prisme 7 data analysis software. […]

O. gutturosa adult worms = test: O. gutturosa adult worm viability, MTT/formazan colorimetry; set-up: species or system Onchocerca gutturosa; conditions: day 5, vs untreated control
Description: The EC50 values were calculated using a sigmoidal interpolation in Graph Pad Prisme 7 data analysis software. The test drug is considered active when a motility reduction of ≥50% is observed by comparison to the untreated controls. In addition, biochemical evaluation of O. gutturosa adult worm viability was assessed using MTT/formazan colorimetry. The MTT assay was carried out after the last motility reading (120 h). Single intact worms were placed in each well of a 48-well plate (Fisher Scientific, UK) containing 0.5 mL of 0.5 mg/mL MTT (Sigma, UK) in PBS solution, and then incubated for 30 min at 37 °C. The worms were removed, blotted carefully, and individually transferred to separate wells of a 96-well microtiter plate, each containing 200 μL of DMSO to solubilize the formazan. After 1 h the plate was gently agitated to disperse the color evenly and the absorbance value (optical density, OD) of the resulting formazan solution was determined at 490 nm using an absorbance microplate reader (Biotek ELx800, Fisher Scientific, UK). The results are expressed as the mean OD per drug concentration. Inhibition of formazan formation is correlated with worm damage or death.
Supplementary Figure S4. Ex vivo MTT worm viability screening against adult O. gutturosa. O. gutturosa adult worm viability was assessed using MTT/formazan colorimetry on day 5. […]

[2] = test system: O. gutturosa adult male worms; test: O. gutturosa adult worm 5-day motility assay; set-up: species or system Onchocerca gutturosa; conditions: 5 days in vitro culture, top concentration 12.5 μM, read-out: O. gutturosa EC50 (motility inhibition, adult worms)
From the text: O. gutturosa adult male worms were obtained postmortem from freshly slaughtered cattle. The worms were dissected from the nuchal ligament connective tissues of naturally infected cattle in Gambia, West Africa; The West Africa Livestock Innovation Centre (WALIC), Banjul, purchased material from local butchers for use in this study.
Using a dissecting microscope and micropipette, microfilariae were then transferred in groups of 5 into each well of a 96-well plate (Fisher Scientific, UK). The adult O. gutturosa worms were transferred individually to each well of a sterile 24-well (2 mL) plate (Fisher Scientific, UK) and maintained for at least 24 h in culture before use. […]
as §1

adult L. sigmodontis = test: L. sigmodontis murine model of filariasis (adult worm burden); assay type: in vivo, Litomosoides sigmodontis in female BALB/c mice; conditions: BALB/c mice, 2 mg/kg, QD SC, 5 days, mean vs mean of vehicle controls

For `Cl.Cl.NCCS[As](SCCN)c1ccc(Nc2nc(N)nc(N)n2)cc1` [Immiticide, melarsomine dihydrochloride], the EC50 [1] was 800 nM, the “O. gutturosa MTT % reduction at 12.5 μM” value (O. gutturosa adult worms) was 96.3% and the EC50 ([2]; listed as Imiticide) was 600 nM. The EC50 [2] was 590 nM.
With `COC(=O)Nc1nc2cc(C(=O)c3ccc(F)cc3)ccc2[nH]1` [Flubendazole, flubendazole] the “Reduction Adult Worms” value (adult L. sigmodontis) was 98.4% (P = 0.024) and 100% (P = 0.007).
